Values joined by “and” are separate entries in the source; they are usually repeats but may differ in a detail not shown here. Equal entries are not always repeated. Where two headings read alike, the source gives them in different places.

The subject of assay [1] is Thanatephorus cucumeris (Rhizoctonia solani). As to the kind of experiment: In vivo test b) Rice Sheath Blight (RSB), 24 hour preapplication protectant, % control. As to conditions: protectant; for pest or weed control at 200 ppm: read-out: % Control RSB. As for the experimental part: Compounds were tested at 200 ppm as a twenty-four hour preapplication protectant test prior to inoculation.
b) Rice Sheath Blight (RSB)
Thanatephorus cucumeris (Rhizoctonia solani) mycelia were grown for six days in potato dextrose broth in shake culture. Drained mycelial mats were blended with an approximately equal weight of rice flour and five parts water. This slurry was dispensed onto the soil surface of pots containing rice seedlings previously treated with experimental compounds. The plants were placed in a mist chamber at 25°-28° C. for 48 hours. Following two more days at 25° C. and 70-90% relative humidity the plants were evaluated for percent disease control compared to check plants.

For assay [2], the system named is Magnaporthe grisea (Pyricularia oryzae). Put plainly: whole plant or invertebrate. It is filed as in vivo, Magnaporthe grisea (Pyricularia oryzae) on M201 rice plants. As to conditions: Pyricularia oryzae, 144 h, read-out: % Control RB.
A further assay relates to Candida albicans. As to the kind of experiment: Activity against Candida albicans in microtiter plates, % control of growth. It is filed as cell-based. As for the experimental part: The activity against Candida albicans was determined using the following test protocol.
Conidia and mycelium from the Candida albicans culture maintained on potato dextrose agar plates were lightly scraped off into yeast extract-dextrose broth (YDB) so that mostly conidia was used as inoculum. The conidial suspsension was strained through a double layer of cheesecloth to remove mycelial clumps. The inoculum mixture was placed in microtiter plates using a 12-tipped pipet. 175 microliters were placed in each well of the microliter plates and the plates were placed in the refrigerator overnight. There were two replications.
The compounds to be tested were dissolved in 1:1 acetone:methanol and 100 ppm of the compound solution were placed in a well of the prepared microtiter plates.
The microtiter plates were incubated for 7 days at room temperature after addition of the compounds. Percent control was visually estimated using a microtiter plate reading mirror. Readings were made at 1, 2, 3, and/or 7 days after treatment.

The subject of the next assay is fungal mycelium. Put plainly: organism not typed. It is filed as cell-based. As to conditions: read-out: % growth inhibition.
For the next assay, the system named is fungal inoculum. As to the kind of experiment: organism not typed. It is filed as cell-based. As to conditions: read-out: % growth inhibition.
Assay [3] deals with Pyricularia oryzae. It is filed as in vivo, Pyricularia oryzae on M-201 rice plants. As to conditions: protectant.
Another assay deals with Septoria nodorum. As to the kind of experiment: Wheat Septoria preventative experiments (single fungicides and combinations). In kind it is in vivo, Septoria nodorum on Fielder wheat plants. The procedure:
(§1) The experiments below were performed using the relevant following procedures.
(§2) Experimental compounds and commercial fungicides were tank mixed and mechanically sprayed at varying concentrations in a 1:1:2 mixture of acetone, methanol and water. Protective or preventive sprays were applied one day before spore inoculation. Curative or post-infection sprays were applied one day after spore inoculation. The spraying system utilized delivered a 200 ppm dose at the rate of 1458 liters per hectare. The following details were applicable for the specified diseases:
Fielder wheat plants were inoculated with Septoria nodorum conidia. The spore concentration was approximately 3,000,000 conidia per milliliter in water. An atomizer was used to apply twenty milliliters of inoculum to twenty plants per flat. The plants were placed in a humidity cabinet at 100% relative humidity for 72 hours and then placed in a greenhouse. Evaluations were made 10 days after inoculation.
(§3) "Disease control" was recorded as percent control based on a comparison of the unsprayed, inoculated controls and the treated, inoculated plants.

For the next assay, the system named is Boytrytis cinerea. As to the kind of experiment: Tomato Botrytis protective experiments (single fungicides and combinations). It is filed as in vivo, Boytrytis cinerea on Pixie tomato plants. As for the experimental part: as §1, §2
Three week-old "Pixie" tomato plants were inoculated with Boytrytis cinerea conidia. The plants were held in dim light for two days prior to inoculation. The spore concentration was 500,000 to 650,000 conidia per milliliter of dextrose solution. An atomizer was used to apply the conidial suspension in a heavy coating to near runoff to both the upper and lower leaf surfaces and to the plant stem. The plants were kept in a continuous mist chamber with a day-night cycle and at 20 degrees centigrade for 5 days.
as §3

Assay [4] deals with Pyricularia oryzae. It is filed as in vivo, Pyricularia oryzae on M-201 rice plants. As to conditions: curative.
[5] abbreviates: 24 h, 1 day after treatment, read-out: % control of growth +1.
Where [6] appears, read: 48 h, 2 days after treatment, read-out: % control of growth +2.
Setting [7] is: 72 h, 3 days after treatment, read-out: % control of growth +3.
Setting [8] is: 168 h, 7 days after treatment, read-out: % control of growth +7.

In general, inhibition refers to the drop in the measured response relative to a control, in per cent. Consider `C=CC#CCn1nc(-c2ccc(Cl)c(F)c2)ccc1=O` [Compound 128], for which the pest or weed control at 200 ppm came out at 0% in assay [1] and 95% in assay [2]. Further, the inhibition of growth at 100 ppm in the assay with Candida albicans (setting [5]), with Candida albicans (setting [6]) and in the assay with Candida albicans (setting [7]) was 100% throughout. In addition, the inhibition at 0.156 ppm in the assay with fungal mycelium is 100%.
For `CCC#CCN1N=C(c2ccc(Cl)cc2)CCC1=O` [Compound 12, 6-(4-chlorophenyl)-2-(2'-pentynyl)-4,5-dihydropyridazinone], the pest or weed control at 200 ppm was determined as 50% in assay [1] and 99% in assay [2]. Moreover, in the assay with fungal inoculum, the inhibition at 1 ppm came out at 96%. For the same compound, the inhibition of growth at 100 ppm in the assay on Candida albicans (setting [5]), in the assay on Candida albicans (setting [6]), in the assay with Candida albicans (setting [7]) and in the assay with Candida albicans (setting [8]) was 100% throughout. Moreover, the “% Disease Control, Observed” value in the assay with Pyricularia oryzae [3] (12 ppm alone) was 0%; in the assay with Pyricularia oryzae [3] (50 ppm alone), 50%; with Pyricularia oryzae [3] (200 ppm alone), 50%.
In the case of `CCC#CCN1N=C(c2ccc(Cl)cc2)OCC1=O` [Compound 161, 2-(4-chlorophenyl)-4-(2-pentyn-1-yl)-4H,6H-1,3,4-oxadiazin-5-one], the figures for the pest or weed control at 200 ppm in [1] and in [2] were 0% and 99%, respectively. Moreover, the inhibition of growth at 100 ppm in the assay with Candida albicans (setting [5]), in the assay on Candida albicans (setting [6]) and with Candida albicans (setting [7]) was 100% each time. Moreover, the inhibition at 1 ppm in the assay on fungal mycelium came out at 75.9%.
Take `O=C1CCc2cccc3c2N1CC3` [pyroquilon]: the results for the “% Disease Control, Observed” value with Pyricularia oryzae [3] (12 ppm alone), in the assay with Pyricularia oryzae [3] (50 ppm alone) and with Pyricularia oryzae [3] (200 ppm alone) were 0%, 0% and 85%, respectively.
Consider `CC(C)NC(=O)N1CC(=O)N(c2cc(Cl)cc(Cl)c2)C1=O` [iprodione, reference compound], for which the “% Disease Control, Observed” value is 0% with Septoria nodorum (12 ppm alone), 0% in the assay on Septoria nodorum (50 ppm alone) and 50% in the assay on Septoria nodorum (200 ppm alone).
In the case of `N#Cc1c(Cl)c(Cl)c(Cl)c(C#N)c1Cl` [chlorothalonil], the “% Disease Control, Observed” value is 0% in the assay on Pyricularia oryzae [3] (12 ppm alone), 0% with Pyricularia oryzae [3] (50 ppm alone) and 99% in the assay on Pyricularia oryzae [3] (200 ppm alone).
As for `C=CCOC1=NS(=O)(=O)c2ccccc21` [probenazole], the “% Disease Control, Observed” value in the assay on Pyricularia oryzae [3] (12 ppm alone), with Pyricularia oryzae [3] (50 ppm alone) and with Pyricularia oryzae [3] (200 ppm alone) was 0% in each case.
Consider `N#CC(CCc1ccc(Cl)cc1)(Cn1cncn1)c1ccccc1` (stereo not drawn) [fenbuconazole, alpha-[2-(4-chlorophenyl)ethyl]-alpha-phenyl-1H-1,2,4-triazole-1-propanenitrile], for which the figures for the “% Disease Control, Observed” value in the assay with Boytrytis cinerea (6 ppm alone), in the assay on Boytrytis cinerea (25 ppm alone) and in the assay with Boytrytis cinerea (50 ppm alone) were 50%, 75% and 75%, respectively.
With `C=CC#CCn1nc(-c2ccc(Cl)cc2)ccc1=O` [Compound 119], the pest or weed control at 100 ppm in [1] (100 ppm) was determined as 0%; in assay [2], 95%. Besides, the inhibition at 5 ppm with fungal inoculum was determined as 99.3%. Besides, the inhibition of growth at 100 ppm with Candida albicans (setting [5]), in the assay with Candida albicans (setting [6]), in the assay on Candida albicans (setting [7]) and with Candida albicans (setting [8]) was 100% in each case.
Turning to `CCC#CCn1nc(-c2ccc(Cl)cc2)ccc1=O` [Compound 109, 6-(4-chlorophenyl)-2-(2'-pentynyl)pyridazinone], the pest or weed control at 200 ppm in assay [1] was 100%; in [2], 99%. Besides, the inhibition of growth at 100 ppm in the assay on Candida albicans (setting [5]), in the assay on Candida albicans (setting [6]), with Candida albicans (setting [7]) and with Candida albicans (setting [8]) was 100% in each case. For the same compound, the “% Disease Control, Observed” value in the assay on Septoria nodorum (12 ppm alone) worked out at 0%; in the assay on Septoria nodorum (50 ppm alone) it was 50%; in the assay on Septoria nodorum (200 ppm alone), 50%; in the assay on Boytrytis cinerea (50 ppm alone) it was 0%; in the assay with Boytrytis cinerea (200 ppm alone), 75%; in the assay with Pyricularia oryzae [3] (12 ppm alone), 0%. Moreover, the “% Disease Control, Observed” value in the assay on Pyricularia oryzae [3] (50 ppm alone) was 0%; in the assay with Pyricularia oryzae [3] (200 ppm alone) it was 99% and 80%; in the assay with Pyricularia oryzae [4] (12 ppm alone), 0%; with Pyricularia oryzae [4] (50 ppm alone) it was 50%; with Pyricularia oryzae [4] (200 ppm alone), 80%. Further, the inhibition at 1 ppm in the assay with fungal mycelium was 100%.
In the case of mancozeb [reference compound], the “% Disease Control, Observed” value is 75% in the assay on Pyricularia oryzae [3] (50 ppm alone), 99% with Pyricularia oryzae [3] (200 ppm alone), 0% with Pyricularia oryzae [4] (50 ppm alone) and 0% in the assay with Pyricularia oryzae [4] (200 ppm alone).
For `C=CC#CCN1N=C(c2ccc(Cl)c(F)c2)CCC1=O` [Compound 100], the results for the pest or weed control at 200 ppm in assay [1] and in assay [2] were 0% and 100%, respectively. Further, the inhibition of growth at 100 ppm in the assay on Candida albicans (setting [5]), in the assay on Candida albicans (setting [6]) and in the assay on Candida albicans (setting [7]) was 100% throughout. In addition, in the assay on fungal mycelium, the inhibition at 0.16 ppm was 100%.
As to `C=CC#CCN1N=C2c3ccc(Cl)cc3CC2CC1=O` (stereo not drawn) [Compound 156, 7-chloro-2,4,4a,5-tetrahydro-2-(2-pentyn-4-ene-1-yl)-indeno [1,2-c]-pyridazin-3-one], the pest or weed control at 200 ppm in assay [1] is 95%; in [2], 100%. Besides, the inhibition of growth at 100 ppm in the assay with Candida albicans (setting [5]), in the assay on Candida albicans (setting [6]) and in the assay on Candida albicans (setting [7]) was 100% in each case. Also, the inhibition at 1 ppm with fungal mycelium was 100%.

The values are drawn from US5726162A (priority 1996, dated 1998).
